Data: PMC5007854, “β-Nitrostyrenes as Potential Anti-leishmanial Agents” (Frontiers in Microbiology, 2016)
Converted amounts (≈) assume the structure as drawn. Where two headings read alike, the source gives them in different places.

Key:
[1] = system: Pseudomonas aeruginosa ATCC 27853; assay: Broth microdilution antibacterial susceptibility (MIC/MBC); format: cell-based; settings: for MIC / MBC: Pseudomonas aeruginosa; for MIC: ATCC27853, 24 h
Excerpt: (§1) One reference each of the following species was used for their in vitro susceptibility to β-nitrostyrene in this study: Staphylococcus aureus ATCC 29213, Staphylococcus epidermidis ATCC 14990, Escherichia coli ATCC 25922, Pseudomonas aeruginosa ATCC 27853, Candida albicans ATCC 90028, Candida glabrata ATCC 90030, Aspergillus fumigatus ATCC 16424 and Aspergillus niger ATCC 16404. These strains were procured from the American Type Culture Collection (ATCC, Manassas, VA, USA).
(§2) The antibacterial and antifungal activities of the β-nitrostyrenes were performed by broth microdilution methods as per the guidelines of Clinical and Laboratory Standard Institute (Wayne, [1998], [2008a],[b],[c]) by using Mueller-Hinton broth (MHB; Becton-Dickinson, Cockeysville, MD, USA) supplemented with calcium (25 mg/L) and magnesium (12.5 mg/L) for bacterial strains while as RPMI 1640 medium with L-glutamine and without sodium bicarbonate, buffered to pH 7.0 with 0.165 M 3-(N-morpholino) propanesulfonic acid (MOPS; both from Sigma) was used for fungal strains. Stock solutions were prepared in 100% dimethyl sulfoxide (DMSO; Sigma; distilled water was used for ciprofloxacin), with a final DMSO concentration of 1% (vol. per vol.) and two-fold serial dilutions were prepared in media in amounts of 100 μL per well in 96-well U-bottom microtiter plates (Tarsons, Kolkata, India) to yield twice the final concentration required for testing, which ranged from 64 to 0.12 μg/mL for β-nitrostyrenes and 16 to 0.03 μg/mL for ciprofloxacin as well as amphotericin B. Stock inoculum suspensions of the bacteria, Candida species and Aspergillus species were prepared in sterile normal saline (0.85%) containing 0.05% polysorbate 20 (NST) from overnight (3 to 5-day old for Aspergillus species) strains grown on Trypticase soy agar (TSA; Becton-Dickinson) and potato dextrose agar (Difco Laboratories, Detroit, MI, USA) respectively at 35°C. Inocula were verified for each assay by plating onto agar plates for colony enumeration. These suspensions were further diluted in the respective test medium and a 100 μl volume of this diluted inoculum was added to each well of the plate, resulting in a final inoculum concentration of approximately 5 × 10^5 CFU/mL for bacter1ia, (Wayne, [2008a]) approximately 2.5 × 10^4 CFU/ml for Candida species (Pfaller et al., [2004]) while as 0.4 × 10^4 to 5 × 10^4 CFU/mL for Aspergillus species (Wayne, [2008c]). Untreated growth control, vehicle control (DMSO) and sterility control wells were included for each isolate tested. Ciprofloxacin and amphotericin B served as the standard drug controls for bacterial and fungal strains, respectively. The microtiter plates were incubated at 35°C for 24 h for bacterial strains and 48 h for fungal strains. The plates were read visually and the minimum inhibitory concentration (MIC) was defined as the lowest concentration of test sample that prevented visible growth with respect to the growth control.
(§3) The minimum bactericidal concentration (MBC) and minimum fungicidal concentration (MFC) were determined by plating 100 μl volumes on agar plates from the wells showing no visible growth (clear MIC well). The plates were incubated as described above in MIC measurements. […] All experiments were conducted twice in duplicates on separate occasions with freshly prepared inoculums and stock solutions.

[2] = system: Staphylococcus epidermidis ATCC 14990; assay: as above; format: cell-based; settings: for MIC / MBC: Staphylococcus epidermidis; for MIC: ATCC14990, 24 h
Excerpt: as §1, §2, §3

[3] = system: Staphylococcus aureus ATCC 29213; assay: as above; format: cell-based; settings: for MIC / MBC: Staphylococcus aureus; for MIC: ATCC29213, 24 h
Excerpt: as §1, §2, §3

[4] = system: Escherichia coli ATCC 25922; assay: as above; format: cell-based; settings: for MIC / MBC: Escherichia coli; for MIC: ATCC25922, 24 h
Excerpt: as §1, §2, §3

[5] = system: L. donovani promastigotes; assay: Dose-dependent anti-promastigote activity, IC50 and IC90; format: cell-based, Leishmania donovani
Procedure: (§4) L. donovani parasites (MHOM/IN/83/AG83) were maintained in vivo in BALB/c mice. Promastigotes were routinely cultured at 22°C in medium M199 supplemented with 10% heat inactivated fetal bovine serum (FBS, HiMedia Laboratories, Mumbai, India), penicillin 100 (IU/ml), streptomycin (100 μg/ml). Log phase promastigotes were sub-cultured every 72–96 h, the inoculum being 2 × 10^6 cells/ml (Afrin et al., [2002]).
AmB was used as a standard antileishmanial drug control. The cell viability was evaluated by microscopically and the mean percentage viability was calculated as follows: Mean cell number of treated parasites / Mean cell number of untreated parasites × 100. The 50 and 90% inhibitory concentration (IC50 and IC90) i.e., the concentration of drugs that decreased the cell growth by 50 and 90% respectively was determined by graphical extrapolation after plotting the graph of % viability vs. concentration of drug (Islamuddin et al., [2014b]).
In vitro antileishmanial activity was expressed as IC50 by linear regression analysis. Values are mean ± SE of samples in triplicate from at least three independent experiments. Statistical analysis was performed using ANOVA followed by Dunnett's test. ^*P < 0.05, ^**P < 0.01 and ^***P < 0.001 compared with the untreated control group were considered significant.

[6] = system: L. donovani promastigotes; assay: Anti-leishmanial screening at 100 μM, parasite viability by microscopy; format: cell-based, Leishmania donovani; settings: 100 μM, 72 h, phase contrast microscope
Procedure: as §4
Nitrostyrine series were screened for their antileishmanial activity against L. donovani promastigotes in vitro. Promastigotes of L. donovani (2 × 10^6 cells/mL) in M199 medium were incubated at 22°C for 72 h with each compound at a concentration of 100 μM. Amphotericin B (AmB) served as reference drug, 0.2% DMSO was used as solvent control. Parasites with media alone were taken as control. Parasite viability was determined microscopically after 72 h (Islamuddin et al., [2014b]).

[7] = system: Aspergillus fumigatus ATCC 16424; assay: Broth microdilution antifungal susceptibility (MIC/MFC); format: cell-based; settings: for MIC / MFC: Aspergillus fumigatus; for MIC: ATCC16424, 48 h
Excerpt: as §1, §2, §3

[8] = system: Candida glabrata ATCC 90030; assay: as above; format: cell-based; settings: Nakaseomyces glabratus
Excerpt: as §1, §2, §3

[9] = system: Candida albicans ATCC 90028; assay: as above; format: cell-based; settings: Candida albicans
Excerpt: as §1, §2, §3

[10] = system: Aspergillus niger ATCC 16404; assay: as above; format: cell-based; settings: for MIC / MFC: Aspergillus niger; for MIC: ATCC16404, 48 h
Excerpt: as §1, §2, §3

[11] = broth microdilution, 35°C, 24 h
[12] = broth microdilution, 35°C, 48 h

SMILES: C/C(=C\c1cccc(O)c1)[N+](=O)[O-] [Compound 20, 3-((E)-2-nitroprop-1-enyl) phenol]
- MIC ([1]; broth microdilution, 35°C, 24 h, read-out: MIC, Pa ATCC 27853): 16 to 32 µg/mL (≈ 89.3 to 179 µM)
- MBC ([1]; ATCC27853, ≥99.9% reduction of original inoculum, read-out: MBC, Pa ATCC 27853): 32 µg/mL (≈ 179 µM)
- MIC, Pa ATCC 27853 [1, 11]: 16 µg/mL (≈ 89.3 µM)
- MIC ([2]; broth microdilution, 35°C, 24 h, read-out: MIC, Se ATCC 14990): 2 to 16 µg/mL (≈ 11.2 to 89.3 µM)
- MBC ([2]; ATCC14990, ≥99.9% reduction of original inoculum, read-out: MBC, Se ATCC 14990): 2 µg/mL (≈ 11.2 µM)
- MIC, Se ATCC 14990 [2, 11]: 2 µg/mL (≈ 11.2 µM)
- MIC ([3]; broth microdilution, 35°C, 24 h, read-out: MIC, Sa ATCC 29213): 2 to 32 µg/mL (≈ 11.2 to 179 µM)
- MBC ([3]; ATCC29213, ≥99.9% reduction of original inoculum, read-out: MBC, Sa ATCC 29213): 4 µg/mL (≈ 22.3 µM)
- MIC, Sa ATCC 29213 [3, 11]: 2 µg/mL (≈ 11.2 µM)
- MIC ([4]; broth microdilution, 35°C, 24 h, read-out: MIC, Ec ATCC 25922): 16 to 32 µg/mL (≈ 89.3 to 179 µM)
- MBC ([4]; ATCC25922, ≥99.9% reduction of original inoculum, read-out: MBC, Ec ATCC 25922): 16 µg/mL (≈ 89.3 µM)
- MIC, Ec ATCC 25922 [4, 11]: 16 µg/mL (≈ 89.3 µM)
- Anti-leishmanial activity, in words (compounds with IC50 determined) ([5]; L. donovani promastigotes): moderately active
- IC50 ([5]; Leishmania donovani, 72 h, 22°C, values given in μM, read-out: IC50 against promastigotes): 63.2 ± 2.06 µM
- Parasite viability after treatment [6]: All the parasites were found to be dead
- melting point: 96 to 98 °C
- MIC ([7]; broth microdilution, 35°C, 48 h, read-out: MIC, Af ATCC 16424): 4 to 8 µg/mL (≈ 22.3 to 44.6 µM)
- MFC ([7]; ATCC16424, ≥99.9% reduction of original inoculum, read-out: MFC, Af ATCC 16424): 8 µg/mL (≈ 44.6 µM)
- MIC, Af ATCC 16424 [7, 12]: 8 µg/mL (≈ 44.6 µM)
- MFC ([8]; ATCC90030, ≥99.9% reduction of original inoculum, read-out: MFC, Cg ATCC 90030): 8 µg/mL (≈ 44.6 µM)
- MFC ([9]; ATCC90028, ≥99.9% reduction of original inoculum, read-out: MFC, Ca ATCC 90028): 16 µg/mL (≈ 89.3 µM)
- MIC ([10]; broth microdilution, 35°C, 48 h, read-out: MIC, An ATCC 16404): 2 to 4 µg/mL (≈ 11.2 to 22.3 µM)
- MFC ([10]; ATCC16404, ≥99.9% reduction of original inoculum, read-out: MFC, An ATCC 16404): 4 µg/mL (≈ 22.3 µM)
- MIC, An ATCC 16404 [10, 12]: 4 µg/mL (≈ 22.3 µM)

SMILES: C/C(=C\c1ccc([N+](=O)[O-])cc1)[N+](=O)[O-] [Compound 8, 1-nitro-4-((E)-2-nitroprop-1-enyl) benzene]
- MIC ([1]; read-out: MIC, Pa ATCC 27853, broth microdilution, 35°C, 24 h): 64 µg/mL (≈ 307 µM)
- MBC ([1]; ATCC27853, read-out: MBC, Pa ATCC 27853): > 64 µg/mL
- MIC ([2]; read-out: MIC, Se ATCC 14990, broth microdilution, 35°C, 24 h): 16 µg/mL (≈ 76.9 µM)
- MBC ([2]; ATCC14990, read-out: MBC, Se ATCC 14990): 16 µg/mL (≈ 76.9 µM)
- MIC ([3]; read-out: MIC, Sa ATCC 29213, broth microdilution, 35°C, 24 h): 16 µg/mL (≈ 76.9 µM)
- MBC ([3]; ATCC29213, read-out: MBC, Sa ATCC 29213): 32 µg/mL (≈ 154 µM)
- MIC ([4]; read-out: MIC, Ec ATCC 25922, broth microdilution, 35°C, 24 h): 64 µg/mL (≈ 307 µM)
- MBC ([4]; ATCC25922, read-out: MBC, Ec ATCC 25922): > 64 µg/mL
- Parasite viability after treatment [6]: All the parasites were found to be dead
- melting point: 114 to 116 °C
- MIC ([7]; read-out: MIC, Af ATCC 16424, broth microdilution, 35°C, 48 h): 4 µg/mL (≈ 19.2 µM)
- MFC ([7]; ATCC16424, read-out: MFC, Af ATCC 16424): 4 µg/mL (≈ 19.2 µM)
- MIC ([8]; ATCC90030, 48 h, read-out: MIC, Cg ATCC 90030, broth microdilution, 35°C, 48 h): 1 µg/mL (≈ 4.8 µM)
- MFC ([8]; ATCC90030, read-out: MFC, Cg ATCC 90030): 1 µg/mL (≈ 4.8 µM)
- MIC ([9]; ATCC90028, 48 h, read-out: MIC, Ca ATCC 90028, broth microdilution, 35°C, 48 h): 4 µg/mL (≈ 19.2 µM)
- MFC ([9]; ATCC90028, read-out: MFC, Ca ATCC 90028): 4 µg/mL (≈ 19.2 µM)
- MIC ([10]; read-out: MIC, An ATCC 16404, broth microdilution, 35°C, 48 h): 2 µg/mL (≈ 9.61 µM)
- MFC ([10]; ATCC16404, read-out: MFC, An ATCC 16404): 2 µg/mL (≈ 9.61 µM)
